From patent US20240059689A1, “PURINE DERIVATIVES AS ANTICANCER AGENTS” (Tango Therapeutics, Inc., priority 2021, published 2024)
Read-outs that look alike come from different tables or passages of the source.

What was measured:
[1] = tested on: HCC1954; test: Viability assay, BRCA1 WT cell line HCC1954; format: cell-based; conditions: read-out: HCC1954 rel IC50
Description: (§1) Table 1 also indicates IC50 values in a viability assay for a non-isogenic pair of BRCA1 mutant (column 5-MDA-MB-436) and BRCA1 WT (column 6—HCC1954) cell lines. These values indicate the effect of treatment with compound on cell survival.

[2] = tested on: MDA-MB-436; test: Viability assay, BRCA1 mutant cell line MDA-MB-436; format: cell-based; conditions: BRCA1 mutant MDA-MB-436, read-out: MDA-MB-436 rel IC50
Description: as §1

[3] = molecular target: USP1-UAF1 (Homo sapiens, UniProt O94782); test: Ubiquitin Rhodamine assay of USP1-UAF1 activity; format: biochemical
Chain of USP1-UAF1 (O94782 whole entry): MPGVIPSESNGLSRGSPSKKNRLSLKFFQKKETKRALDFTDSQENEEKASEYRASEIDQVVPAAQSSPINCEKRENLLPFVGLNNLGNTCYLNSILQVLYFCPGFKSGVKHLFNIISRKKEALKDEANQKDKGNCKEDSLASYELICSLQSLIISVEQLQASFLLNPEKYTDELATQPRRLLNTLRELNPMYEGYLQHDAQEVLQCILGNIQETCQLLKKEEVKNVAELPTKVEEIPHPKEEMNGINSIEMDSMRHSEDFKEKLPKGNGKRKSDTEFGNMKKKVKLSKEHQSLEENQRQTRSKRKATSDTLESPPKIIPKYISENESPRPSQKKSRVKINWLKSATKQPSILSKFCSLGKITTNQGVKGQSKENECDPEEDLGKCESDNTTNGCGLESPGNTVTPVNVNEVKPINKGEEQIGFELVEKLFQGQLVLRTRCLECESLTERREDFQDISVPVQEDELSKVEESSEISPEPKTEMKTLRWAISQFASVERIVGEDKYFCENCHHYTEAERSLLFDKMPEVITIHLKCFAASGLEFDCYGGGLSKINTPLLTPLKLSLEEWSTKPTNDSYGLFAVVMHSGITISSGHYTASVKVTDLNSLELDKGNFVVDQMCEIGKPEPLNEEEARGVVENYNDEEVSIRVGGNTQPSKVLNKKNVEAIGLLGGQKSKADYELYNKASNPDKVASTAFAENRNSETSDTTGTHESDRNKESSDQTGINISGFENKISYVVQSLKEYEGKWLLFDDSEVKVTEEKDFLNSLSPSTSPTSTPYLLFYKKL
Chain of USP1-UAF1 (Q8TAF3 whole entry partner): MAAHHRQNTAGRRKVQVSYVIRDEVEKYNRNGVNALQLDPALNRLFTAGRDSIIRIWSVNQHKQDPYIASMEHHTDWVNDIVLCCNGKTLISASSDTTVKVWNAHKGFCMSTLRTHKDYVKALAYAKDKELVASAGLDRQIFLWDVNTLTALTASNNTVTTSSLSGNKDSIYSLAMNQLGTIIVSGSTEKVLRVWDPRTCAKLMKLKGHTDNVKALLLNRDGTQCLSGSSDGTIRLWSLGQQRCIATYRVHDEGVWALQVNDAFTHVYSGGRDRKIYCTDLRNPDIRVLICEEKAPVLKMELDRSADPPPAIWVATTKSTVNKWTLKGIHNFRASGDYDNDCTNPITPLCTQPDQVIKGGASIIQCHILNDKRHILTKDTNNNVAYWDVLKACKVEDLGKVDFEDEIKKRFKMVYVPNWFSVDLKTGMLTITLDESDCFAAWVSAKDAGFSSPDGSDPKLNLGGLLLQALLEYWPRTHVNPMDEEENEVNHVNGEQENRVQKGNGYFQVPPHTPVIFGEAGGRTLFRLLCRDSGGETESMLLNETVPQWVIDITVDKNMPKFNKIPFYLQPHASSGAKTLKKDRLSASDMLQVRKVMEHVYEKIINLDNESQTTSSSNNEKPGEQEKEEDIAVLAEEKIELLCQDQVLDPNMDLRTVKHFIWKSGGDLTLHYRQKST
Description: Certain compounds of the disclosure were assessed for USP1-UAF1 activity in a Ubiquitin Rhodamine assay as described in Biology Example 1.

[4] = Homo sapiens, HCC1954, viability
[5] = Homo sapiens, MDA-MB-436, viability

SMILES | IC50 ([1]; viability) | IC50 ([2]; viability) | IC50 [3] | IC50 [1, 4] | IC50 [2, 5]
CC(C)c1ccccc1-c1ncc2c(n1)n(C(C)C1CCN(c3nc(Cl)cn3C)CC1)c(=N)n2C (single isomer, unassigned) [Example A-26d, 9-(1-(1-(4-chloro-1-methyl-1H-imidazol-2-yl)piperidin-4-yl)ethyl)-2-(2-isopropylphenyl)-7-methyl-7,9-dihydro-8H-purin-8-imine] | ≥ 10 µM | 0.25 to 10 µM | 0.1 to 10 µM |  | 
Cn1cc(C(F)(F)F)nc1-c1ccc(Cn2c(=N)n(C)c3cnc(-c4c(C#N)cnn4C)nc32)cc1 [Example T-022] |  |  | 0.1 to 10 µM | ≥ 10 µM | 0.25 to 10 µM
COc1ncnc(C2CC2)c1-c1ncc2c(n1)n(Cc1cc(-c3nc(C(F)(F)F)cn3C)cs1)c(=N)n2C [Example T-014] |  |  | 0.1 to 10 µM | ≥ 10 µM | 0.25 to 10 µM
COc1ncnc(C2CC2)c1-c1ncc2c(n1)n(C[C@H]1CC[C@H](c3nc(C(F)(F)F)cn3C)CC1)c(=N)n2C [Example T-089] |  |  | 0.1 to 10 µM | ≥ 10 µM | 0.25 to 10 µM
CC(C)c1ccccc1-c1ncc2c(n1)n(Cc1ccc(-c3ncc[nH]3)cc1)c(=N)n2C [Example A-4, 9-(4-(1H-imidazol-2-yl)benzyl)-2-(2-isopropylphenyl)-7-methyl-7H-purin-8(9H)-imine] |  |  | 0.1 to 10 µM |  | 
CC#Cc1nc(-c2ccccc2Cl)nc2c1n(C)c(=N)n2Cc1ccc(-c2nc(Cl)cn2C)cc1 [Example A-45, 9-(4-(4-chloro-1-methyl-1H-imidazol-2-yl)benzyl)-2-(2-chlorophenyl)-7-methyl-6-(prop-1-yn-1-yl)-7,9-dihydro-8H-purin-8-imine] |  |  | 0.1 to 10 µM | 0.25 to 10 µM | 0.25 to 10 µM
CC(C)c1ccccc1-c1ncc2c(n1)n(Cc1ccc(-c3cc(Cl)cn3C)cc1)c(=N)n2C [Example A-7, 9-(4-(4-chloro-1-methyl-1H-pyrrol-2-yl)benzyl)-2-(2-isopropylphenyl)-7-methyl-7,9-dihydro-8H-purin-8-imine] |  |  | 0.1 to 10 µM | 0.25 to 10 µM | 0.25 to 10 µM
Cn1cc(Cl)nc1-c1ccc(Cn2c(=N)n(C)c3c(C#CC4CC4)nc(-c4ccccc4Cl)nc32)cc1 [Example A-46, 9-(4-(4-chloro-1-methyl-1H-imidazol-2-yl)benzyl)-2-(2-chlorophenyl)-6-(cyclopropylethynyl)-7-methyl-7,9-dihydro-8H-purin-8-imine] |  |  |  | 0.25 to 10 µM | 0.25 to 10 µM
COc1ncnc(C2CC2)c1-c1ncc2c(n1)n(Cc1ccc(-c3nc(C(F)(F)F)cn3C)s1)c(=N)n2C [Example T-007] |  |  | 0.1 to 10 µM | ≥ 10 µM | 0.25 to 10 µM

More lines, now with the values ahead:

IC50 ([1]; viability) | IC50 ([2]; viability) | IC50 [3] | IC50 [1, 4] | IC50 [2, 5] | SMILES
 |  | 0.1 to 10 µM | ≥ 10 µM | 0.25 to 10 µM | COc1nccc(C)c1-c1ncc2c(n1)n(Cc1ccc(-c3nc(C(F)(F)F)cn3C)cc1)c(=N)n2C [Example T-028]
 |  | 0.1 to 10 µM | ≥ 10 µM | 0.25 to 10 µM | Cn1cc(C(F)(F)F)nc1-c1ccc(Cn2c(=N)n(C)c3cnc(-c4c(C5CC5)cnn4C)nc32)cc1 [Example T-017]
 |  | 0.1 to 10 µM | ≥ 10 µM | ≥ 10 µM | COc1ncncc1-c1ncc2c(n1)n(Cc1ccc(-c3nc(C(F)(F)F)cn3C)cc1)c(=N)n2C [Example T-058]
 |  | 0.1 to 10 µM | ≥ 10 µM | 0.25 to 10 µM | Cn1cc(C(F)(F)F)nc1-c1cc(F)c(Cn2c(=N)n(C)c3cnc(-c4ccccc4C(F)(F)F)nc32)c(F)c1 [Example T-046]
 |  | 0.1 to 10 µM | 0.25 to 10 µM | 0.25 to 10 µM | Cc1nc(-c2ccccc2)nc2c1n(C)c(=N)n2Cc1ccc(-c2nc(C(F)(F)F)cn2C)cc1 (single isomer, unassigned) [Example A-15b, 6,7-dimethyl-9-(4-(1-methyl-4-(trifluoromethyl)-1H-imidazol-2-yl)benzyl)-2-phenyl-7,9-dihydro-8H-purin-8-imine]
 |  | 0.1 to 10 µM | 0.25 to 10 µM | 0.25 to 10 µM | CNc1ncccc1-c1ncc2c(n1)n(Cc1ccc(-c3nc(C(F)(F)F)cn3C)cc1)c(=N)n2C [Example T-075]
 |  | 0.1 to 10 µM | ≥ 10 µM | 0.25 to 10 µM | Cn1c(=N)n(Cc2ccc(-c3nc(C(F)(F)F)cn3C3COC3)cc2)c2nc(-c3ccccc3C(F)(F)F)ncc21 [Example T-077]
 |  | 0.1 to 10 µM | ≥ 10 µM | 0.25 to 10 µM | Cc1noc(C)c1-c1ncc2c(n1)n(Cc1ccc(-c3nc(C(F)(F)F)cn3C)cc1)c(=N)n2C [Example T-062]
 |  | 0.1 to 10 µM | ≥ 10 µM | 0.25 to 10 µM | CC(C)c1cnccc1-c1ncc2c(n1)n(Cc1ccc(-c3nc(C(F)(F)F)cn3C)cc1)c(=N)n2C [Example T-096]
 |  | 0.1 to 10 µM | 0.25 to 10 µM | 0.25 to 10 µM | Cc1cc(-c2nc(C(F)(F)F)cn2C)cc(C)c1Cn1c(=N)n(C)c2cnc(-c3ccccc3C(F)(F)F)nc21 [Example T-080]
